Results reported in patent US12180200B1, “2-(benzo[d]oxazol-2-yl)-n′-(isonicotinoyloxy)acetimidamide as an antimicrobial compound” (KING FAISAL UNIVERSITY, priority 2023, dated 2024).

Columns and labels:
Type in all cases: cell-based
different microbes = assay: Antimicrobial activity screening (overall statement); conditions: against different microbes (bacteria and fungi of Tables 1 and 2)
Protocol: (§1) The agar plate disc-diffusion method was applied. Sterilized filter papers (6 mm in diameter) were wetted with 10 μL of a solution 2-(benzo[d]oxazol-2-yl)-N′-(isonicotinoyloxy)acetimidamide (3) to be tested, containing 10 mg/mL in DMSO, and the discs were allowed to air dry. The discs were then placed onto the surface of agar plates (nutrient agar for bacteria and Sabouraud's dextrose agar for fungi) seeded with the test organism. Each plate contained 15 mL of the agar medium, previously seeded with 0.2 mL of the broth culture of each organism pregrown for 18 hours. The plates were incubated at 37° C. for 48 hours, and 72 hours for fungi. The inhibition zones was measured in mm. Discs impregnated with DMSO were used as a control, and its inhibition zone was subtracted from the tested compound actual inhibition zone.

Bacillus cereus = assay: Agar plate disc-diffusion, antibacterial activity
Protocol: as §1, with “Sterilized filter papers (6 mm in diameter) were wetted with 10 μL of a solution 2-(benzo[d]oxazol-2-yl)-N′-(isonicotinoyloxy)acetimidamide (3) to be tested, containing 10 mg/mL in DMSO, and the discs were allowed to air dry.” left out

Staphylococcus aureus = assay: Agar plate disc-diffusion, antibacterial activity
Protocol: as §1, with “Sterilized filter papers (6 mm in diameter) were wetted with 10 μL of a solution 2-(benzo[d]oxazol-2-yl)-N′-(isonicotinoyloxy)acetimidamide (3) to be tested, containing 10 mg/mL in DMSO, and the discs were allowed to air dry.” left out

Escherichia coli = assay: Agar plate disc-diffusion, antibacterial activity
Protocol: as §1, with “Sterilized filter papers (6 mm in diameter) were wetted with 10 μL of a solution 2-(benzo[d]oxazol-2-yl)-N′-(isonicotinoyloxy)acetimidamide (3) to be tested, containing 10 mg/mL in DMSO, and the discs were allowed to air dry.” left out

Pseudomonas aeruginosa = assay: Agar plate disc-diffusion, antibacterial activity
Protocol: as §1, with “Sterilized filter papers (6 mm in diameter) were wetted with 10 μL of a solution 2-(benzo[d]oxazol-2-yl)-N′-(isonicotinoyloxy)acetimidamide (3) to be tested, containing 10 mg/mL in DMSO, and the discs were allowed to air dry.” left out

Aspergillus flavus = assay: Agar plate disc-diffusion, antifungal activity
Protocol: as §1, with “Sterilized filter papers (6 mm in diameter) were wetted with 10 μL of a solution 2-(benzo[d]oxazol-2-yl)-N′-(isonicotinoyloxy)acetimidamide (3) to be tested, containing 10 mg/mL in DMSO, and the discs were allowed to air dry.” left out

[1] = tested on: Chrysosporium keratinophilum; assay: Agar plate disc-diffusion, antifungal activity
Protocol: as §1, with “Sterilized filter papers (6 mm in diameter) were wetted with 10 μL of a solution 2-(benzo[d]oxazol-2-yl)-N′-(isonicotinoyloxy)acetimidamide (3) to be tested, containing 10 mg/mL in DMSO, and the discs were allowed to air dry.” left out

[2] = A = concentration of comp. = 10,000 μL
[3] = B = concentration of comp. = 30,000 μL
[4] = C = concentration of comp. = 50,000 μL

SMILES	antimicrobial activities (different microbes)	inhibition zone (Bacillus cereus; [2]) [mm]	inhibition zone (Bacillus cereus; [3]) [mm]	inhibition zone (Bacillus cereus; [4]) [mm]	inhibition zone (Staphylococcus aureus; [2]) [mm]	inhibition zone (Staphylococcus aureus; B =) [mm]	inhibition zone (Staphylococcus aureus; [4]) [mm]	inhibition zone (Escherichia coli; [2]) [mm]	inhibition zone (Escherichia coli; [3]) [mm]	inhibition zone (Escherichia coli; [4]) [mm]	inhibition zone (Pseudomonas aeruginosa; [2]) [mm]	inhibition zone (Pseudomonas aeruginosa; [3]) [mm]	inhibition zone (Pseudomonas aeruginosa; [4]) [mm]	inhibition zone (Aspergillus flavus; [2]) [mm]	inhibition zone (Aspergillus flavus; [3]) [mm]	inhibition zone (Aspergillus flavus; [4]) [mm]	inhibition zone [1, 2] [mm]	inhibition zone [1, 3] [mm]	inhibition zone [1, 4] [mm]
N/C(Cc1nc2ccccc2o1)=N\OC(=O)c1ccncc1 [Compound 3, 2-(benzo[d]oxazol-2-yl)-N′-(isonicotinoyloxy)acetimidamide]	excellent antimicrobial activities	25	27	36	17	24	30	27	36	52	25	29	50	20	24	35	26	29	48
O=C(O)c1cn(C2CC2)c2cc(N3CCNCC3)c(F)cc2c1=O [Cip., ciprofloxacin, reference compound]		29	30	42	43	44	53	30	39	60	29	30	53	29	30	42	29	30	53
